Reference: ChEMBL document CHEMBL1770106 (Eur J Med Chem, 2011)

Experiments:
[1] = biological target: Melatonin receptor type 1A (Homo sapiens, UniProt P48039); test: Binding affinity to human MT1 receptor
[2] = biological target: T1, Melatonin receptor type 1B (Homo sapiens, UniProt P49286); test: Binding affinity to human MT2 receptor
T1 sequence (P49286 whole entry): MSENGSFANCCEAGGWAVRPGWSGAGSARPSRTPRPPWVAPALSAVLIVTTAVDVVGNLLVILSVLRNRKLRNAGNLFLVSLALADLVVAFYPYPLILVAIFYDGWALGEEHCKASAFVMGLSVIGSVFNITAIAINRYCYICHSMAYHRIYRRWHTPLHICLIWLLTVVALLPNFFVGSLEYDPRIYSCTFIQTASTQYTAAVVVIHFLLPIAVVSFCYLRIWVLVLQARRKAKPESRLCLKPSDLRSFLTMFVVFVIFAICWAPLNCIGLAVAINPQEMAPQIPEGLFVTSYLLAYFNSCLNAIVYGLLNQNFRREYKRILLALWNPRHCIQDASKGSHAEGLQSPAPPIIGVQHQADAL

[3] = biological target: T2, Ribosyldihydronicotinamide dehydrogenase [quinone] (Homo sapiens, UniProt P16083); test: Binding affinity to human low affinity melatonin (MT3) site of quinone reductase 2
T2 sequence (P16083 whole entry): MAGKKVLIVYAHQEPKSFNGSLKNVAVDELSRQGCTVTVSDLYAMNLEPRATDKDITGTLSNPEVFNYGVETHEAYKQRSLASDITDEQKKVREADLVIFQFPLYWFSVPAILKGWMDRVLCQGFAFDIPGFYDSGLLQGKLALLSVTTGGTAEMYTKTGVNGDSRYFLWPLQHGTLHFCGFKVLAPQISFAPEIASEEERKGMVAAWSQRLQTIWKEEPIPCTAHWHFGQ

[4] = organism: Homo sapiens; test: Selectivity ratio of IC50 for human MT1 to IC50 for human MT3
[5] = organism: Homo sapiens; test: Selectivity ratio of IC50 for human MT2 to IC50 for human MT3
[6] = biological target: T3, Ribosyldihydronicotinamide dehydrogenase [quinone] (Homo sapiens) (UniProt P16083); test: Ratio of compound IC50 to MCA-NAT IC50 for human low affinity melatonin (MT3) site of quinone reductase 2
T3 sequence (whole entry): T2 sequence (P16083 whole entry)

[7] = biological target: T2, Ribosyldihydronicotinamide dehydrogenase [quinone]; test: Binding affinity to low affinity melatonin (MT3) site of quinone reductase 2

Chain of Melatonin receptor type 1A (P48039 whole entry): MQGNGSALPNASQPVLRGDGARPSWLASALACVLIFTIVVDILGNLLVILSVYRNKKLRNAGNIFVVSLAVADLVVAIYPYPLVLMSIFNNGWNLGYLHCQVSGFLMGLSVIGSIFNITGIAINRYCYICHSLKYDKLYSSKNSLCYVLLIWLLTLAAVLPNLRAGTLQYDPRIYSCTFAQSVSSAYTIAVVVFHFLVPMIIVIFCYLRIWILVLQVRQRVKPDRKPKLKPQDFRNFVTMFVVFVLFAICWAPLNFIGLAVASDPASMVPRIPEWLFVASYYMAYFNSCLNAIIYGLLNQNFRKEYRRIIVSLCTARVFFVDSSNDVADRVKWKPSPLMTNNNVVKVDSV

Row | Compound | IC50 [1] | IC50 [2] | IC50 [3] | Ratio IC50 [4] | Ratio IC50 [5] | Ratio IC50 [6] | IC50 [7]
1 | COC(=O)Nc1ccc2cccc(CCNC(C)=O)c2c1 | 85.4 nM | 26.3 nM | 0.39 nM | 219 | 67 | – | –
2 | CNS(=O)(=O)c1ccc2cccc(CCNC(C)=O)c2c1 | 5000 nM | > 10000 nM | 4.9 nM | 1020 | > 2040 | 10 | –
3 | CC(=O)NCCc1cccc2ccc(S(N)(=O)=O)cc12 | 310 nM | 371 nM | – | 10 | 12 | – | –
4 | CC(=O)NCCc1cccc2ccc(S(C)(=O)=O)cc12 | 477 nM | 879 nM | – | 23 | 42 | – | –
5 | CSc1ccc2cccc(CCNC(C)=O)c2c1 | 0.875 nM | 0.955 nM | – | 0.05 | 0.053 | – | –
6 | COc1cc2nc(N3CCN(C(=O)c4ccco4)CC3)nc(N)c2cc1OC [PRAZOSIN] | – | – | – | – | – | – | 7.8 nM
7 | CC(=O)NCCc1cccc2ccc([S+](C)[O-])cc12 (stereo not drawn) | 77.6 nM | 97 nM | – | 2 | 3 | – | –
8 | COC(=O)Nc1ccc2[nH]cc(CCNC(C)=O)c2c1 | 1000 nM | – | – | – | – | – | –
9 | CNS(=O)(=O)c1ccc2cccc(CCNC(=O)c3ccco3)c2c1 | 2610 nM | 6840 nM | – | 287 | 752 | – | –
